The subject of test [1] is LOS purified from N. gonorrhoeae strain 15253. In kind it is in vivo.
The target in a further test is mAb 2C7. The test can be described thus: Inhibition ELISA: inhibition of mAb 2C7 binding to immobilized gonococcal LOS. The following applies: for comparative ability to inhibit mAb 2C7 binding to LOS (antigenicity): ranking within the set of peptides tested. From the text:
FIGS. 1A-1B show the structure and characterization of one of the peptide mimics described herein (also referred to as TMCP2). […] The 2C7 mimitope is indicated in shown as the sequence “H2C-CO-GPIPVLDENGLFAPGPC” (SEQ ID NO: 1) Cyclization is maintained through a thioether bond. The reverse peptide mimic core is represented the schematic of the peptide mimic as “Ac-β-Ala-Glu[Glu-OH]2.” The reverse peptide mimic core links to each cyclic peptide through a lysine (K) residue.
In order to compare antigenicity of peptide mimic Core Peptide 2 (monomeric cyclic CP2) and composite TMCP2 compounds with LOS that expresses the 2C7 epitope, inhibition ELISA was performed using mAb 2C7 reacted with the individual compounds to assess inhibition of binding (residual binding) of mAb to LOS by each compound. Microtiter wells were coated with LOS (80 μg/ml in PBS) purified from strain FA1090. Wells were washed and blocked with PBS-0.05% Tween 20. mAb 2C7 (0.04 μg/ml) either alone or containing monomeric cyclic peptide CP2 (1.07 to 1070 μM) or composite TMCP2 (concentrations ranging from […]) was dispended into LOS coated wells. Residual binding of 2C7 mAb was measured with anti-mouse IgG conjugated to alkaline phosphatase. Bound IgG was quantitated using a mouse IgG standard curve and percent inhibition determined compared to reaction mixtures that […].
Attempts to measure mAb 2C7 (7) binding directly to immobilized peptide mimic Core Peptide 2 (abbreviated CP2 in FIG. 1A) and composite TMCP2 by ELISA were not successful. The possibility of poor capture of the peptides by the microtiter wells was considered and therefore used an ELISA to measure inhibition of binding (residual binding) of mAb 2C7 to immobilized gonococcal LOS that had been reacted with increasing concentrations of the peptides (FIG. 1B).

The mark [2] stands for this setting: earlier peptide constructs, FIG. 18 and FIG. 19.

pIC50: −log10 of the molar value. “Also recorded” adds a separate entry of the source. Read-outs that look alike come from different tables or passages of the source. Bridges are numbered along the chain shown (N, C = ends). Primed or numbered codes have the meaning given here. Where no end group is shown, it is not given here. [ ]: non-standard residue; d: D form. PEG2′ = two-unit polyethylene glycol spacer; PEG2″ = not defined here

Eleven substances from patent publication US12629410B2, “Multi-antigenic peptide mimics of gonococcal lipo-oligosaccharide (LOS) epitopes” (priority 2019, dated 2026) can be followed below.

Consider “(CGPIPVLDENGLFAPGPC)4(Lys)2Lys-β-Ala-COOH [Tetra MAP 1.1]”, for which the “immunogenicity in BALB/c mice (IgG against 2C7+ LOS by ELISA)” value (“immunogenicity in BALB/c mice” below) in test [1] (in vivo) was “Neither compound was superior; also recorded: elicited similar anti-LOS Ab levels as Tetra”.
In the case of “(CH2-CO-GPIPVLDENGLFAPGPC)-K-OH ({CH2CO}-GPIPVLDENGLFAPGPCK-OH; thioether N-17; SMILES CC[C@H](C)[C@@H]1NC(=O)[C@@H]2CCCN2C(=O)CNC(=O)CSC[C@@H](C(=O)N[C@@H](CCCCN)C(=O)O)NC(=O)[C@@H]2CCCN2C(=O)CNC(=O)[C@@H]2CCCN2C(=O)[C@H](C)NC(=O)[C@H](Cc2ccccc2)NC(=O)[C@H](CC(C)C)NC(=O)CNC(=O)[C@H](CC(N)=O)NC(=O)[C@H](CCC(=O)O)NC(=O)[C@H](CC(=O)O)NC(=O)[C@H](CC(C)C)NC(=O)[C@H](C(C)C)NC(=O)[C@@H]2CCCN2C1=O) [CP2]”, the pIC50 at mAb 2C7 (mAb 2C7 0.04 μg/ml, LOS-coated wells, read-out: concentration giving 50% inhibition of mAb 2C7 binding to immobilized 15253 LOS) is 3.97.
Turning to “(KIPVLDENGLFAP-PEG2-KK)4-MAP4 [Tetra MAP 3.1]”, the “immunogenicity in BALB/c mice” value in test [1] (in vivo) was “poorly immunogenic”.
Turning to “(KIPVLDENGLFAP-PEG2-KKC)4-Maleimide4-MAP4 (KIPVLDENGLFAP[PEG2″]KKC; also: four copies on a maleimide MAP4 core) [TetraMAP 3.2]”, the “immunogenicity in BALB/c mice” value in test [1] (setting [2]) is listed as “poorly immunogenic”.
Take “KIPVLDENGLFAP (SEQ ID NO: 3)-PEG2-KK (KIPVLDENGLFAP[PEG2′]KK) [Mod3]”: the “comparative ability to inhibit mAb 2C7 binding to LOS (antigenicity)” value in the test with mAb 2C7 (listed as Mod 3) is recorded as “most antigenic”.
Turning to “KIPVLDENGLFAP-D Lys-D Lys4-K2-K-MAP4 (not fully specified (C-terminus); also: four copies on a branched Lys (K2-K) MAP4 core) [TetraMAP 3.3]”, the “immunogenicity in BALB/c mice” value in test [1] (setting [2]) was “poorly immunogenic”.
“KIPVLDENGLFAPAAAGGKIPVLDENGLFAP [Mod3 linear dimer #2]”: the “immunogenicity in BALB/c mice” value in test [1] (earlier peptide constructs, FIG. 18 and FIG. 19, listed as 16) is given as “non-immunogenic”; in test [1] (earlier peptide constructs, FIG. 18 and FIG. 19, listed as Mod3 linear dimer with AAAGG (SEQ ID NO: 5) linker), “neither were immunogenic”. The “comparative ability to inhibit mAb 2C7 binding to LOS (antigenicity)” value with mAb 2C7 (listed as Mod3 linear dimer with AAAGG (SEQ ID NO: 5) linker) is recorded as “better than the molecule with the AG linker”.
Turning to “KIPVLDENGLFAPGPC-D Lys-D Lys4-K2-K-MAP4 (not fully specified (C-terminus); also: four copies on a branched Lys (K2-K) MAP4 core) [TetraMAP 3.4]”, in test [1] (setting [2]), the “immunogenicity in BALB/c mice” value is recorded as “poorly immunogenic”.
As for “KIPVLDENGLFAPGSKIPVLDENGLFAP [Mod3 linear dimer #1]”, the “immunogenicity in BALB/c mice” value in test [1] (earlier peptide constructs, FIG. 18 and FIG. 19, listed as 15) was “non-immunogenic”; in test [1] (earlier peptide constructs, FIG. 18 and FIG. 19, listed as Mod3 linear dimer with GS linker), “neither were immunogenic”.
Consider “SGPIPVLDENGLFAPGPC)4(Lys)2Lys-β-Ala-COOH [Tetra MAP 1.2]”, for which the “immunogenicity in BALB/c mice” value in test [1] (in vivo) was “Neither compound was superior”.
On to “[Ac-(CGPIPVLDENGLFAPGPC)-K-OH]4 (Ac-CGPIPVLDENGLFAPGPCK-OH; disulfide 1-18; also: tetrameric reverse MAP core) [TMCP3, disulfide-cyclized peptides on reverse MAP core]”, for which, in test [1] (tetrapeptides 50 μg/dose plus Sigma MPL adjuvant, BALB/c, FIG. 10), the “anti-LOS titers in immunization experiments” value is “higher anti-LOS titers than TMCP4”. Further, the “comparative ability to inhibit mAb 2C7 binding to LOS (antigenicity)” value with mAb 2C7 is listed as “bound best”.
